Measured values reported in PubChem BioAssay AID1745844 (Carcinogenic Potency Database (CPDB), 2022).

Test system: rodent lifetime carcinogenesis bioassay, tumor incidence TD50
Assay: chronic cancer bioassays in animals – CPDB, compiled studies (AID 1745844)

**Q.** Which TD50 (mouse, strain B6C3F1, females, in feed, site: any site (literature study), lesion: several types, types named in the paper, dosed 104 weeks, study length 104 weeks) does the source give for Cc1ncc[nH]1 here?
**A.** 729 mg/kg/day

**Q.** What about the TD50 (mouse, strain B6C3F1, females, in feed, site: liver, lesion: hepatocellular adenoma + hepatoblastoma + hepatocellular carcinoma, dosed 104 weeks, study length 104 weeks) of the same compound?
**A.** 1620 mg/kg/day

**Q.** And the TD50 (mouse, strain B6C3F1, females, in feed, site: liver, lesion: hepatocellular adenoma, dosed 104 weeks, study length 104 weeks)?
**A.** 1380 mg/kg/day

**Q.** What about the TD50 (mouse, strain B6C3F1, males, in feed, site: any site (literature study), lesion: several types, types named in the paper, dosed 104 weeks, study length 104 weeks) of the same compound?
**A.** 866 mg/kg/day

**Q.** What about the TD50 (mouse, strain B6C3F1, males, in feed, site: liver + thyroid gland, lesion: hepatocellular adenoma + hepatocellular carcinoma + follicular-cell adenoma, dosed 104 weeks, study length 104 weeks) of the same compound?
**A.** 378 mg/kg/day

**Q.** What about the TD50 (mouse, strain B6C3F1, males, in feed, site: liver, lesion: hepatocellular adenoma + hepatoblastoma + hepatocellular carcinoma, dosed 104 weeks, study length 104 weeks) of the same compound?
**A.** 546 mg/kg/day

**Q.** And the TD50 (mouse, strain B6C3F1, males, in feed, site: liver, lesion: hepatocellular adenoma + hepatocellular carcinoma, dosed 104 weeks, study length 104 weeks)?
**A.** 546 mg/kg/day

**Q.** And the TD50 (mouse, strain B6C3F1, males, in feed, site: liver, lesion: hepatocellular adenoma, dosed 104 weeks, study length 104 weeks)?
**A.** 648 mg/kg/day

**Q.** And the TD50 (mouse, strain B6C3F1, males, in feed, site: liver, lesion: hepatocellular carcinoma, dosed 104 weeks, study length 104 weeks)?
**A.** 378 mg/kg/day

**Q.** And the TD50 (mouse, strain B6C3F1, males, in feed, site: thyroid gland, lesion: follicular-cell adenoma, dosed 104 weeks, study length 104 weeks)?
**A.** 1810 mg/kg/day

**Q.** What about the TD50 (rat, strain Fischer 344, females, in feed, site: any site (literature study), lesion: several types, types named in the paper, dosed 105 weeks, study length 105 weeks) of the same compound?
**A.** 131 mg/kg/day

**Q.** What about the TD50 (rat, strain Fischer 344, females, in feed, site: liver, lesion: hepatocellular adenoma + hepatoblastoma + hepatocellular carcinoma, dosed 105 weeks, study length 105 weeks) of the same compound?
**A.** 2000 mg/kg/day

**Q.** What about the TD50 (rat, strain Fischer 344, females, in feed, site: liver, lesion: hepatocellular adenoma, dosed 105 weeks, study length 105 weeks) of the same compound?
**A.** 2000 mg/kg/day

**Q.** What about the TD50 (rat, strain Fischer 344, females, in feed, site: thyroid gland, lesion: follicular-cell adenoma + follicular-cell carcinoma, dosed 105 weeks, study length 105 weeks) of the same compound?
**A.** 882 mg/kg/day

**Q.** What about the TD50 (rat, strain Fischer 344, females, in feed, site: thyroid gland, lesion: follicular-cell adenoma, dosed 105 weeks, study length 105 weeks) of the same compound?
**A.** 2100 mg/kg/day

**Q.** And the TD50 (rat, strain Fischer 344, females, in feed, site: thyroid gland, lesion: follicular-cell carcinoma, dosed 105 weeks, study length 105 weeks)?
**A.** 1380 mg/kg/day

**Q.** And the TD50 (rat, strain Fischer 344, males, in feed, site: any site (literature study), lesion: several types, types named in the paper, dosed 104 weeks, study length 104 weeks)?
**A.** 303 mg/kg/day

**Q.** And the TD50 (rat, strain Fischer 344, males, in feed, site: liver, lesion: hepatocellular adenoma + hepatoblastoma + hepatocellular carcinoma, dosed 104 weeks, study length 104 weeks)?
**A.** 663 mg/kg/day

**Q.** And the TD50 (rat, strain Fischer 344, males, in feed, site: liver, lesion: hepatocellular adenoma + hepatocellular carcinoma, dosed 104 weeks, study length 104 weeks)?
**A.** 663 mg/kg/day

**Q.** And the TD50 (rat, strain Fischer 344, males, in feed, site: pancreatic islets, lesion: islet-cell adenoma, dosed 104 weeks, study length 104 weeks)?
**A.** 1010 mg/kg/day

**Q.** What about the TD50 (rat, strain Fischer 344, males, in feed, site: skin, lesion: basal-cell carcinoma + keratoacanthoma + trichoepithelioma, dosed 104 weeks, study length 104 weeks) of the same compound?
**A.** 624 mg/kg/day

**Q.** And the TD50 (rat, strain Fischer 344, males, in feed, site: thyroid gland, lesion: follicular-cell adenoma + follicular-cell carcinoma, dosed 104 weeks, study length 104 weeks)?
**A.** 854 mg/kg/day

**Q.** With Clc1ccc(-c2ccc(Cl)c(Cl)c2Cl)c(Cl)c1Cl as the compound, how does the TD50 (rat, strain Sherman COBS, females, in feed, site: liver, lesion: hepatocellular carcinoma, dosed 89 weeks, study length 95 weeks) read?
**A.** 18.3 mg/kg/day

**Q.** What about the TD50 (rat, strain Sherman COBS, females, in feed, site: liver, lesion: neoplastic nodule, dosed 89 weeks, study length 95 weeks) of the same compound?
**A.** 1.76 mg/kg/day

**Q.** And the TD50 (rat, strain Sherman COBS, females, in feed, site: liver, lesion: several types, types named in the paper, dosed 89 weeks, study length 95 weeks)?
**A.** 1.04 mg/kg/day

**Q.** And the TD50 (rat, strain Sprague-Dawley, females, in feed, site: liver, lesion: cholangioma, dosed 104 weeks, study length 104 weeks)?
**A.** 98.2 mg/kg/day

**Q.** And the TD50 (rat, strain Sprague-Dawley, females, in feed, site: liver, lesion: hepatocellular adenoma, dosed 104 weeks, study length 104 weeks)?
**A.** 6.43 mg/kg/day

**Q.** What about the TD50 (rat, strain Sprague-Dawley, females, in feed, site: liver, lesion: hepatocellular carcinoma, dosed 104 weeks, study length 104 weeks) of the same compound?
**A.** 41.4 mg/kg/day

**Q.** What about the TD50 (rat, strain Sprague-Dawley, females, in feed, site: liver, lesion: several types, types named in the paper, dosed 104 weeks, study length 104 weeks) of the same compound?
**A.** 5.51 mg/kg/day

**Q.** What about the TD50 (rat, strain Sprague-Dawley, males, in feed, site: liver, lesion: hepatocellular adenoma, dosed 104 weeks, study length 104 weeks) of the same compound?
**A.** 24.8 mg/kg/day

**Q.** And the TD50 (rat, strain Sprague-Dawley, males, in feed, site: liver, lesion: hepatocellular carcinoma, dosed 104 weeks, study length 104 weeks)?
**A.** 121 mg/kg/day

**Q.** And the TD50 (rat, strain Sprague-Dawley, males, in feed, site: liver, lesion: several types, types named in the paper, dosed 104 weeks, study length 104 weeks)?
**A.** 20 mg/kg/day

**Q.** And the TD50 (rat, strain Sprague-Dawley, males, in feed, site: thyroid gland, lesion: follicular-cell adenoma, dosed 104 weeks, study length 104 weeks)?
**A.** 11.4 mg/kg/day

**Q.** What about the TD50 (rat, strain Sprague-Dawley, males, in feed, site: thyroid gland, lesion: follicular-cell carcinoma, dosed 104 weeks, study length 104 weeks) of the same compound?
**A.** 232 mg/kg/day

**Q.** And the TD50 (rat, strain Sprague-Dawley, males, in feed, site: thyroid gland, lesion: several types, types named in the paper, dosed 104 weeks, study length 104 weeks)?
**A.** 10.3 mg/kg/day

**Q.** And the TD50 (rat, strain Wistar, males, in feed, site: liver, lesion: hepatocellular carcinoma, dosed 116 weeks, study length 116 weeks)?
**A.** 5.39 mg/kg/day

**Q.** Cl[C@@H]1OCCO[C@H]1Cl was tested. Which TD50 (mouse, strain Ha/ICR, females, i.p., site: lung, lesion: papillary tumor, dosed 64 weeks, study length 64 weeks) did it give?
**A.** 7.04 mg/kg/day
